# Measurements published in US7439052B2, “Method of making modified immunodeficiency virus particles” (Lipid Sciences, priority 2000, dated 2008).
# How the values were obtained:
# SIVmac239 [1] = assay: Plasma viral loads in macaques chronically infected with SIVmac239; format: in vivo
# Source text: (§1) A cohort of highly viremic macaques chronically infected for over two years with SIVmac239 was used as a chronic and pathogenic model of immunodeficiency virus infection. The animals were identified as RDg-7, RJo-6, RMi-7 and RSp-6. To test the effect on these animals of administration of a delipidated immunodeficiency virus composition comprising modified, partially delipidated immunodeficiency viral particles, also referred to as therapeutic vaccine compositions or therapeutic vaccines, autologous immunodeficiency virus was delipidated and administered to the experimental animals following a 30 day antiretroviral therapy (ART) with an antiviral drug PMPA. […] The animals were then subjected to lymph node targeted immunization at monthly intervals with 1, 1 and 10 μg of autologous delipidated SIV virus composition, obtained substantially as described elsewhere herein. Four weeks after the last boost, ART was discontinued and the animals were monitored for virological and immunological parameters.
# The virological and immunological parameters were determined substantially as follows. Viral loads, schematically shown in FIGS. 13-18, were analyzed by SIV enzyme immunoassay (EIA) substantially as described elsewhere herein. […] Plates were read at a 450 nm wavelength using an ELISA reader. […]
# SIVmac239 [2] = assay: Absolute CD4 counts in SIV-infected macaques; format: in vivo; settings: from pre-PMPA levels of <500/μl
# Source text: as §1
smiles,measurement,setting,value
C[C@H](Cn1cnc2c(N)ncnc21)OCP(=O)(O)O [PMPA],viral loads after 30 day antiretroviral therapy,SIVmac239 [1]; macaques chronically infected with SIVmac239,less than 80 copies/ml of viral RNA
same,plasma viral loads under treatment (below the limits of detection),SIVmac239 [1]; reduced from 10^4-10^6,< 10 viral RNA copies/ml
same,absolute CD4 counts,SIVmac239 [2],increases in absolute CD4 counts
